Like-named read-outs stand apart in the source and are kept apart here.
What was measured:
[1] = target: T1, SARS-CoV-2 NSP3 macrodomain (Mac1) (Severe acute respiratory syndrome coronavirus 2, UniProt P0DTD1); experiment: biochemical; assay type: binding
[2] = target: T1, SARS-CoV-2 NSP3 macrodomain (Mac1); assay type: binding; details: for binding by crystal soaking: repeated attempts, result in words
[3] = HTRF binding curve, SARS-CoV-2 Mac1
[4] = compound at 200 μM, mean of three to four technical replicates, read-out: % competition at 200 μM (preliminary HTRF screen)
[5] = ligand modeling, Mac1 crystal soak
[6] = read-out: IC50 (confirmatory HTRF dose-response screen)
[7] = stereoisomer(s) modeled as bound, residues 201/202/203
[8] = single dose concentration 200 μM (TS-FrankenROCS series)
[9] = SARS CoV-2 macrodomain HTRF assay
[10] = SARS CoV-2 macrodomain HTRF assay, single dose concentration 200 μM, read-out: Average % competition
[11] = SARS CoV-2 macrodomain HTRF assay, dose-response, read-out: IC50
[12] = SARS CoV-2 macrodomain HTRF assay, single dose concentration 200 μM
[13] = crystal soak 10 mM, DMSO background map
[14] = crystal soak 10 mM, TFA/DMSO background map

Row | SMILES | inhibition at 200 µM [1, 4] [%] | Number of isomers bound [2, 5] | Ki [1, 9] [µM] | Ligand efficiency (binding enery per heavy atom) [1, 9] | IC50 [1, 11] [µM] | other results
1 | Nc1ncnc2c1ncn2[C@@H]1O[C@H](COP(=O)(O)OP(=O)(O)OC[C@H]2O[C@@H](O)[C@H](O)[C@@H]2O)[C@@H](O)[C@H]1O.[Na].[Na] [ADP-ribose, reference compound] |  |  |  |  |  | Hill slope [1, 3]: 1.1; X-ray crystal structure ([2]; TRUE = crystal structure with ligand obtained): TRUE
2 | O=C(O)C1CCCN1S(=O)(=O)c1cccc2nsnc12 (stereo not drawn) [AVI-2] | 23 | 1 |  |  |  | 
3 | c1ccc(-n2nnnc2CSc2nnc(NC3CC3)s2)cc1 [AVI-286] |  |  |  |  |  | Number of isomers bound [2]: 1
4 | COC1CCCN(S(=O)(=O)c2cc(Cl)cnc2N)C1 (stereo not drawn) [AVI-290] |  |  |  |  |  | binding by crystal soaking ([2]; P43 crystal form): failed to observe binding
5 | Nc1ncc(Cl)cc1S(=O)(=O)N1CCCC(O)C1 (stereo not drawn) [AVI-295] |  |  |  |  |  | binding by crystal soaking ([2]; P43 crystal form): failed to observe binding
6 | Nc1nnc(SCCn2c(=O)oc3ccccc32)s1 [AVI-296] |  |  |  |  |  | Number of isomers bound [2]: 1
7 | CC1CC(C(=O)O)CCN1C(=O)c1ccc2c(c1)OCC(=O)N2 (stereo not drawn) [AVI-303] | < 10 | 1 |  |  |  | inhibition at 200 µM ([1]; single dose concentration 200 μM (TS-FrankenROCS series), read-out: Average % competition): < 10%
8 | OCC(Cc1ccccc1)Nc1ncnc2[nH]ccc12 (stereo not drawn) [AVI-313] |  | 2 |  |  |  | Ligand efficiency (binding enery per heavy atom) [1]: 0.27; Ki ([1]; dose-response): 120 µM; IC50 [1, 6]: 130 µM; Isomers modeled [2, 7]: S,R
9 | O=C(Nc1ccsc1C(=O)O)c1ccc2c(c1)OCO2 [AVI-316] |  | 1 |  |  |  | 
10 | Cc1sc2ncnc(Sc3ccccc3C(=O)O)c2c1C [AVI-317] |  | 1 |  |  |  | 
11 | Cc1c(C)n(Cc2ccccc2)c2ncnc(N)c12 [AVI-321] | 19 | 1 |  |  |  | 
12 | CC(CNC(=O)c1ccc2c(c1)CCC(=O)N2)C(=O)O (stereo not drawn) [AVI-328] |  | 2 |  |  |  | Ligand efficiency (binding enery per heavy atom) [1]: 0.25; Ki ([1]; dose-response): 210 µM; IC50 [1, 6]: 220 µM; Isomers modeled [2, 7]: R,S
13 | Cc1cc2c(=O)n(CCN3C(=O)c4ccccc4S3(=O)=O)nnc2s1 [AVI-341] | 11 | 1 |  |  |  | Average % competition [1, 8]: 11%
14 | CC1CCN(C(=O)c2ccc3c(c2)nc(CO)n3C)CC1C(=O)O (stereo not drawn) [AVI-348] | < 10 | 1 |  |  |  | Average % competition [1, 8]: <10%
15 | CC(C)(O)[C@H]1CCCN1c1ncnc2[nH]ccc12 [AVI-607, 2-[(2R)-1-{7H-pyrrolo[2,3-d]pyrimidin-4-yl}pyrrolidin-2-yl]propan-2-ol] |  | 1 | 4.7 | 0.41 |  | Ligand efficiency ([1]; Binding energy per heavy atom): 0.41; IC50 [1, 6]: 5.1 µM
16 | OC[C@@H]1C[C@H](F)CN1c1ncnc2[nH]ccc12 [AVI-609] | 52 | 1 |  |  |  | inhibition at 200 µM [1, 10]: 52%
17 | OC[C@@H]1C[C@H](O)CN1c1ncnc2[nH]ccc12 [AVI-610] |  | 1 | 150 | 0.31 | 160 | 
18 | NC(=O)C1(O)CCN(c2ncnc3[nH]ccc23)C1 (stereo not drawn) [AVI-611] | 30 | 1 |  |  |  | Average % competition [1, 12]: 30%; Isomers modeled [2, 7]: S,S
19 | CCC1(O)CCN(c2ncnc3[nH]ccc23)C1 (stereo not drawn) [AVI-612] | 22 | 1 |  |  |  | Average % competition [1, 12]: 22%
20 | O[C@@H]1CN(c2ncnc3[nH]ccc23)C[C@H]1F [AVI-616] | 15 | 1 |  |  |  | Average % competition [1, 12]: 15%

Row | SMILES | inhibition at 200 µM [1, 4] [%] | Number of isomers bound [2, 5] | Ki [1, 9] [µM] | Ligand efficiency (binding enery per heavy atom) [1, 9] | IC50 [1, 11] [µM] | other results
21 | O[C@H]1COC[C@@H]1Nc1ncnc2[nH]ccc12 [AVI-1444, (3R,4S)-4-((7H-pyrrolo[2,3-d]pyrimidin-4-yl)amino)tetrahydrofuran-3-ol] |  | 1 |  |  |  | 
22 | CC(C)(O)[C@@H]1CCCN1c1ncnc2[nH]ccc12 [AVI-1445, (S)-2-(1-(7H-pyrrolo[2,3-d]pyrimidin-4-yl)pyrrolidin-2-yl)propan-2-ol] | 75 | 1 | 100 | 0.31 |  | Hill slope [1, 3]: 1.1; Hill slope ([1]; SARS CoV-2 macrodomain HTRF assay, dose-response): 1.6; inhibition at 200 µM [1, 10]: 75%; IC50 [1, 6]: 110 µM; Occupancy difference (refined_occupancy - 2*(1-BDC)) [2]: 0; 1-BDC ([2]; PanDDA background density correction factor): 0.12; PanDDA run, overall: Hit ([2]; crystal soak 10 mM, P43 crystal form): TRUE; PanDDA run, DMSO background map: 1-BDC [2, 13]: 0.12; PanDDA run, DMSO background map: Hit [2, 13]: TRUE; PanDDA run, TFA/DMSO background map: 1-BDC [2, 14]: 0.12; PanDDA run, TFA/DMSO background map: Hit [2, 14]: TRUE; Total number of conformations ([2]; ligand conformations modeled in the crystal structure): 1; X-ray crystal structure ([2]; ligand-bound crystal structure obtained (TRUE)): TRUE; 2*(1-BDC) (%) ([2]; occupancy estimate from PanDDA): 24%; Refined ligand occupancy (%) ([2]; refined crystallographic occupancy): 24%; Binding site ([2]; site occupied in X-ray crystal structure): Adenosine
23 | OC1(CNc2ncnc3[nH]ccc23)CCC2(CC1)OCCO2 [AVI-4315] |  |  | 200 | 0.23 | 210 | 
24 | O=S1(=O)CCCC(O)(CNc2ncnc3[nH]ccc23)C1 (stereo not drawn) [AVI-4317] |  |  | 100 | 0.28 |  | IC50 [1, 6]: 110 µM
25 | CN(CC1(O)CCOCC1)c1ncnc2[nH]ccc12 [AVI-4318] |  |  | 66 | 0.30 | 71 | 
26 | OC1(CNc2ncnc3[nH]ccc23)CCSCC1 [AVI-4319] |  |  | 160 | 0.29 | 170 | 
27 | OC1(CNc2ncnc3[nH]ccc23)CC2CCC1CC2 (stereo not drawn) [AVI-4320] |  |  | 77 | 0.28 | 83 | 
28 | CC(Nc1ncnc2[nH]ccc12)C1(O)CCCCC1 (stereo not drawn) [AVI-4321] |  |  | 45 | 0.32 | 48 | 
29 | OC1(CNc2ncnc3[nH]ccc23)CCCSC1 (stereo not drawn) [AVI-4322] |  |  | 49 | 0.33 | 53 | 
30 | Cc1c[nH]c2ncnc(NCC3(O)CCC(O)CC3)c12 (stereo not drawn) [AVI-4329] |  |  |  |  |  | Isomers modeled ([2]; stereoisomer(s)/conformations of the soaked ligand modeled in the Mac1 crystal structure): rr,rr
31 | Cc1c[nH]c2ncnc(NCC3(O)CCC(C)(C)CC3)c12 [AVI-4330] |  |  | 610 | 0.21 | 650 | 
32 | CC(C)C1CCCN1c1ncnc2[nH]ccc12 (stereo not drawn) [AVI-5216] | 35 |  |  |  |  | inhibition at 200 µM [1, 10]: 35%
33 | CC(C)(CO)Nc1ncnc2[nH]ccc12 [AVI-5266] |  |  | 30 |  | 32 | 
34 | OCC1(Nc2ncnc3[nH]ccc23)COC1 [AVI-5649] | < 10 |  |  |  |  | Average % competition ([1]; Single dose, concentration 200 μM): <10%
35 | OCC1C=CCCN1c1ncnc2[nH]ccc12 (stereo not drawn) [AVI-5998] |  |  | 150 | 0.31 | 160 | 
36 | OCC1CC=CCN1c1ncnc2[nH]ccc12 (stereo not drawn) [AVI-6002] |  |  | 48 | 0.35 | 52 | 
37 | Nc1cccc(CSC2CCc3ccccc32)n1 (stereo not drawn) [AVI-6015] |  |  |  |  |  | IC50 ([1]; read-out: IC50): > 1000 µM
38 | CC(O)C1CCN(c2cc(N3CCC(c4ccccc4)CC3C)ncn2)C1 (stereo not drawn) [AVI-6016] |  |  |  |  |  | IC50 ([1]; read-out: IC50): > 1000 µM
39 | Nc1ncnc(N2CCCCC3(CCC3)C2)c1Cl [AVI-6017] |  |  |  |  |  | IC50 ([1]; read-out: IC50): > 1000 µM
40 | OC1(CNc2ncnc3[nH]ccc23)CCCCC1 [AVI-6217] |  |  | 39 | 0.34 | 42 | 
